Assay results published in patent publication US8796241B2, “Therapy of tumors and infectious agents deficient in methylthioadenosine phosphorylase” (priority 2007, dated 2014).

What was measured:
[1] = test system: MTAP(−) HL-60 cells; assay: Coulter counts of HL-60 suspension cultures; format: cell-based; conditions: Example 13
Method: (§1) For cell types that grow in suspension (e.g., ML-1, HL-60, K-562) medium was RPMI-1640 with 10% FBS (undialyzed).
(§2) For adherent cell types, cell numbers were determined periodically by releasing cells with trypsin (dead cells that were no longer adherent were removed by two prior rinses of the culture dish) and placing a portion of the resulting cell suspension in a Coulter counter. For cell types that grow in suspension, portions of the culture were counted directly, without trypsin treatment. Coulter counts of cells from each dish were done twice, and almost all experiments were done in duplicate. In the presentation of results, raw data for Coulter counts is given in some cases, while in others, counts have been rounded off to two to three significant figures. (Background Coulter counts—i.e., counts of diluent alone—were insignificant.)
(§3) For cells that grow in suspension, the effect of treatments was assessed solely by changes in Coulter count.
• HL-60 cells were grown in RPMI 1640 with 10% FBS. 5′-dAdo, adenine, or neither were added, and after 3 hours, 5-fluorouracil (FU) was added to selected dishes. Six days later, cell numbers were assessed in a Coulter counter. • Initial cell number/ml: 8,160

[2] = test system: MTAP(+) HF cells; assay: Coulter counts of HF cell cultures; format: cell-based, human
Method: For adherent cell types (e.g., HF, A549, MCF7) cells were plated in 60 mm -diameter plastic tissue culture dishes and incubated at 37° C. in a humidified 5% CO2 atmosphere, in Dulbecco's Modified Eagle's Medium (DME) with 10% fetal bovine serum (FBS). At the start of an experiment, medium was replaced with DME and 10% dialyzed FBS.
as §2
Cell cultures were treated with MeP, with or without 5′-dAdo or MTA, for 4 days. The cell cultures were then changed to fresh medium, with the addition of 30 μM Ade to inhibit further action of the analog. Two days later cultures were trypsinized and a portion of the suspension was counted.
• A. F-Ade was added to cultures of HF cells, with varying amounts of 5′-dAdo. After 3 days, cell numbers were counted. • Initial cell count: 1,100 • After three days:
• Cultures of human fibroblasts were treated with DAP, 5′-dAdo, MTA, adenine, or MTX. Thymidine (15 μM) was added to all cultures. • Initial count was: 1807 • Counts, as raw data, after 3 days of incubation, are shown below: […]
• Human fibroblasts in culture were treated with 6-thioguanine (TG), 2,6-diaminopurine (DAP), or 5′-dAdo for 3 days. After trypsinization, cell numbers were counted. • Initial cell number: 296,000

[3] = test system: MTAP-negative cell lines; assay: Applicants' tissue culture experiments on MTAP-negative cell lines (summary statements); format: cell-based, human; mouse; conditions: L1210, HL-60, K-562, MCF7, MDA-MB-231, A549, PANC-1
[4] = test system: MTAP(+) HF cells; assay: Coculture of HF and A549-ouaR cells, clonogenic assay; format: cell-based, human; conditions: addition of 5′-dAdo to DAP
Method: Cell viability of adherent cell types was measured by clonogenic assay as follows: after releasing cells with trypsin and removing a portion of the cell suspension for Coulter counting, the remainder of the cell suspension was plated in serial dilutions in growth medium, without drugs. After a period sufficient for clones to reach a size visible by eye (usually 2 to 3 weeks), clones were stained with crystal violet in a saline/methanol solution. Dishes that had fewer than 100 clones were deemed suitable for counting. From these counts and from the dilution factors, the approximate number of viable cells, in the parent treatment dishes, was calculated. […] In clonogenic assays, clone size was often variable, especially after treatment with toxic drugs. Moreover, many of the very small clones may have arisen from cells detached during the weeks of incubation. […] Cloning efficiency for healthy, growing A549 cells was about 50%; for HF cells, efficiency was quite variable, ranging from 25 to 75% (perhaps because the HF cell stock varied, from experiment to experiment, in passage number).
HF and A549-ouaR (a ouabain-resistant derivative of the human lung carcinoma cell line A549, isolated by Applicants) cells were cultured together in a medium containing DAP, and with or without 5′-dAdo. After 3 days, cultures were trypsinized and serially diluted into fresh medium for clonogenic assays. Some dishes were treated with 0.1 μM ouabain to kill HF cells and permit easy visualization of surviving A549-ouaR clones. Initial viable cells: HF cells, 11,000; A549-ouaR cells, 40,000.

[5] = test system: MTAP(+) ML-1 cells; assay: Coulter counts of ML-1 suspension cultures; format: cell-based
Method: as §1, §2, §3
• ML-1 cells were incubated in RPMI 1640 with 10% FBS with 5′-dAdo (60 μM) for 6 hours. 5-fluorouracil (FU), 6-thioguanine (TG), or 2,6-diaminopurine (DAP) were then added, and after 2 additional days, 0.5 ml was taken for Coulter counts. Initial Coulter count/ml: 308,000

SMILES: C[C@H]1O[C@@H](n2cnc3c(N)ncnc32)[C@H](O)[C@@H]1O [5′-dAdo, 5′-deoxyadenosine]
- protection of HL-60 cells from FU toxicity [1]: not protected
- Coulter counts ([2]; 3 days, 5′-dAdo 60 μM, no F-Ade, initial count 1,100, x56 = cells/dish): 8150
- protection of HF cells against MeP toxicity ([2]; Example 3): effectively protected
- blocking of DAP toxicity in HF cells ([2]; Example 8): blocked
- blocking of inhibition by TG and by DAP in HF cells ([2]; Example 15): blocked inhibition
- protection of HF cells from the combined toxicity of TG and DAP ([2]; Example 15): protected
- protection from toxicity of F-Ade ([2]; increasing concentration of 5′-dAdo): so does protection
- protection against the toxicity of adenine and/or methionine antagonists [3]: inability
- protection of HF cells from DAP in coculture [4]: protected
- Increase in cell number/ml, 60 μM 5′-dAdo ([5]; 5′-dAdo 60 μM for 6 hours, then 2 days with FU 3 μM, TG 20 μM, DAP 50 μM where present, initial Coulter count/ml 308,000): 918,000 /ml
- protection against growth inhibition caused by FU, TG and DAP, individually and in combination ([5]; Example 14): effectively protected
